{"source": "patent US20140256663A1", "about": "“Amphotericin Analogous Compounds and Pharmaceutical Compositions Containing Them” (CENTRO DE INVESTIGACION Y DE ESTUDIOS AVANZADOS DEL …, priority 2010, published 2014)", "key": {"[1]": {"assay": "Unit channel studies in chicken egg lecithin bilayers with cholesterol", "procedure": "The activity is determined by the presence of the different channels formed by polyenes in the lipid bilayer (Cotero, et al., supra; Venegas, et al., supra). […] These values were determined by the technique of unit channel delineated above.\n(§1) Unit channel studies were performed according to procedures described earlier (Cotero, et al., supra, Venegas, et al., supra). Required liposomal suspensions were prepared using lecithin with cholesterol or ergosterol. These suspensions were placed in an ultrasonic bath for 15 minutes to produce unilamellar vesicles. Subsequently, the suspension was placed in a 100 μl eppendorf and a lipid bilayer was formed on the tip of a micro-electrode. The unit channels of amphotericin and of the invented compounds were incorporated to this bilayer. The unit channel current of the various compounds was recorded with an electrometer, and then these records were analyzed by determining the activity of the compounds and the characteristics of the channels formed.\n(§2) The activity is determined by the presence of the various channels formed by polyenes in the lipid bilayer (Cotero, et al., supra, Venegas, et al., supra). […] This conductance is the effect of all the channels present and was determined by the unit channel technique earlier described."}, "[2]": {"assay": "Unit channel studies in chicken egg lecithin bilayers with ergosterol", "details": "AmB 2 μM; 30° C.", "procedure": "as §1, §2"}, "[3]": {"system": "Candida albicans ATCC 10231", "assay": "Antifungal activity in vitro by flow cytometry, Candida albicans ATCC 10231", "assay_type": "cell-based", "details": "ATCC10231, 24 h at 37° C., read-out: CF50 Candida albicans ATCC 10231", "procedure": "The antifungal activity of the polyene macrolide derivate of the present invention was determined by flow cytometry method earlier described (Pinto et al., J. Medical Microbiology, 2009; 58, 1454-1462; Pina-Vaz and Rodriguez, Methods Mol. Biol. 2010; 638:281-289). For the test two strains of Candida albicans (ATCC 10231 and 752) and Candida kruzei were used. A cellular suspension of 1×10^6 UFC/mL was used, which has sown in 96-well plates. […] As controls were used: untreated yeasts (control of living cells), yeasts exposed to UV radiation (arrest, inhibition of proliferation), and yeasts exposed at temperature of 100° C. (dead yeasts). Cells were collected by centrifugation at 10,000×g for 10 min, they were washed once in phosphate buffer. […] of propidium iodide 0.1 mg/mL were added to the cell suspension. It was incubated during 30 minutes at room temperature and protected from light. Finally, the samples were analyzed by flow cytometry (Becton-Dickinson Facsc Calibur, laser argon 480 nm). The intrinsic parameters and fluorescence in the FL2 channel (yellow/orange fluorescence) for FUN and channel FL3 (red fluorescence, filter 630 nm) for propidium iodide were acquired and registered on a logarithmic scale for a minimum of 7500 events per sample. For data analysis, the quadrants were adjusted in a plot of data lines of fluorescence intensity of samples. […] These quadrants were used to quantify the percentile of cells showing altered fluorescence compared to drug-free controls."}, "[4]": {"details": "10 μM AmB; from Venegas et al.; cited from earlier work"}, "[5]": {"details": "comparison value, source not given; cited from earlier work"}, "Candida albicans DSY294": {"system": "Candida albicans DSY294", "details": "Carreira E.; cited from earlier work"}, "Candida albicans (10231)": {"system": "Candida albicans (10231)", "details": "Preobrazhenskaya M; cited from earlier work"}, "physchem": {"assay": "physchem", "details": "DMSO, organic solvent or mixture"}, "[6]": {"system": "Saccharomyces cerevisae FY833(SC) cells", "assay": "Viability of Saccharomyces cerevisae FY833 (SC) cells at various concentrations", "assay_type": "cell-based", "details": "FIG. 1, various concentrations; listed as amide 7", "procedure": "All derivatives were tested for antibiotic activity in yeast cultures of S. cerevisiae."}, "[7]": {"system": "Saccharomyces cerevisae FY833(SC) cells compared with human renal cells 293Q", "details": "FIG. 3"}, "[8]": {"details": "200 μM compound, 30 mol % cholesterol, 27° C."}}, "note": "“Also recorded” adds a separate entry of the source. Like-named read-outs stand apart in the source and are kept apart here."}
{"smiles": "C[C@@H]1[C@H](O)[C@@H](C)/C=C/C=C/C=C/C=C/C=C/C=C/C=C/[C@H](O[C@@H]2O[C@H](C)[C@@H](O)[C@H](N)[C@@H]2O)C[C@@H]2O[C@](O)(C[C@@H](O)C[C@@H](O)[C@H](O)CC[C@@H](O)C[C@@H](O)CC(=O)O[C@H]1C)C[C@H](O)[C@H]2C(=O)O", "note": "[AmB, Amphotericin B]", "values": [{"measurement": "Average conductance cholesterol", "setting": "[1]; AmB 6 μM, 30° C.", "result": "26.6 ± 9.9", "unit": "fS"}, {"measurement": "Average conductance ergosterol", "setting": "[2]", "result": "600 ± 210", "unit": "fS"}, {"measurement": "IC50", "setting": "[3]", "result": 200, "unit": "nM"}, {"measurement": "Opening probability, channel type I", "setting": "[4]", "result": 0.59, "unit": "%"}, {"measurement": "Opening probability, channel type II", "setting": "[4]", "result": 0.26, "unit": "%"}, {"measurement": "Opening probability, channel type III", "setting": "[4]", "result": 0.08, "unit": "%"}, {"measurement": "Opening probability, channel type IV", "setting": "[4]", "result": 4.06, "unit": "%"}, {"measurement": "Opening probability, channel type V", "setting": "[4]", "result": 1.81, "unit": "%"}, {"measurement": "Opening probability, channel type VI", "setting": "[4]", "result": 0.93, "unit": "%"}, {"measurement": "solubility of AmB", "setting": "[5]", "result": 10, "unit": "µg/mL"}, {"measurement": "MIC-Candida albicans DSY294", "setting": "Candida albicans DSY294", "result": 0.0004, "unit": "mM"}, {"measurement": "MIC50-Candida albicans (10231)", "setting": "Candida albicans (10231)", "result": 0.11, "unit": "µg/mL"}, {"measurement": "solubility", "setting": "physchem", "result": "≤ 20", "unit": "mM"}]}
{"smiles": "COC(=O)[C@@H](Cc1c[nH]c2ccccc12)NC(=O)[C@@H]1C(O)C[C@@]2(O)C[C@@H](O)C[C@@H](O)[C@H](O)CC[C@@H](O)C[C@@H](O)CC(=O)OC(C)C(C)[C@H](O)C(C)/C=C/C=C/C=C/C=C/C=C/C=C/C=C/[C@H](OC3OC(C)C(O)C(N)C3O)CC1O2", "note": "(stereo partly shown) [A-7, N-(D)-tryptophanamide of AmB]", "values": [{"measurement": "inhibitory capacity / potency on SC cells compared to AmB", "setting": "[6]", "result": "the most similar; also recorded: the highest power of the derivatives"}, {"measurement": "Opening probability, channel type I", "setting": "[1]; [8]", "result": 14, "unit": "%"}, {"measurement": "Opening probability, channel type II", "setting": "[1]; [8]", "result": 7, "unit": "%"}, {"measurement": "Opening probability, channel type III", "setting": "[1]; [8]", "result": "<1", "unit": "%"}, {"measurement": "Opening probability, channel type IV", "setting": "[1]; [8]", "result": "<1", "unit": "%"}, {"measurement": "Opening probability, channel type V", "setting": "[1]; [8]", "result": "<1", "unit": "%"}, {"measurement": "Opening probability, channel type VI", "setting": "[1]; [8]", "result": "N.O."}, {"measurement": "activity of transmembranal channels in the cholesterol membrane", "setting": "[1]; in words, compared to AmB", "result": "more reduced activity of transmembranal channels"}, {"measurement": "advantage of selectivity over AmB (factor)", "setting": "[7]", "result": 4}]}
